Data from patent publication US9651864B2, “Negative resist composition, method for producing relief pattern using the same, and electronic component using the same” (DAI NIPPON PRINTING CO., LTD., priority 2010, dated 2017).

Experiments:
Format in all cases: physicochemical
[1] = Glass transition temperature (Tg) by differential thermal analyzer DSC-60; settings: second heating to 200° C. at 10° C./min; deemed 200° C. or more when no inflection point until 200° C.
Procedure: Glass transition temperature (Tg): an intersection point of two tangents to smooth curving lines before and after the inflection temperature point of a DTA curve, the DTA curve being obtained when a material for forming a pattern of about 4 mg was heated to 200° C. at a rate of 10° C./min, cooled to room temperature and then heated to 200° C. at a rate of 10° C./min again, with a differential thermal analyzer (DSC-60 manufactured by Shimadzu Corporation).
Tg was deemed as 200° C. or more when no inflection point was found on the DTA curve until 200° C., which point corresponds to glass transition temperature.

[2] = Evaluation of solvent solubility of phenolic compound in typical resist solvents; set-up: key to Solubility in (D)-2: ⊚: The material for forming a pattern was dissolved at a concentration of 5 wt % at 23° C.; ◯: The material for forming a pattern was dissolved at a concentration of 1 wt % at 23° C.; X: The material for forming a pattern was insoluble; settings: for Solubility in (D)-1: (D)-1: Propylene glycol monomethylether; for Solubility in (D)-1 / Solubility in (D)-2: 1 or 5 wt % at 23° C.; for Solubility in (D)-2: (D)-2: Propylene glycol monomethyl ether acetate
Procedure: The phenolic compounds (A-01 to A-15) obtained in Synthesis Examples 1 to 15 and the comparative phenolic compounds (CA-01 and CA-02) were added to the following typical resist solvents so as to have a concentration of 1 or 5 wt % at 23° C., followed by stirring:
(D)-1: Propylene glycol monomethylether
(D)-2: Propylene glycol monomethyl ether acetate
The thus-obtained mixtures were evaluated based on the following evaluation criterion.
? : The material for forming a pattern was dissolved at a concentration of 5 wt % at 23° C.,
∘: The material for forming a pattern was dissolved at a concentration of 1 wt % at 23° C.
x: The material for forming a pattern was insoluble.

[3] = as above; settings: (D)-3: Cyclopentanone; 1 or 5 wt % at 23° C.

SMILES	Glass Transition Temperature [1]	Solubility in (D)-1 [2]	Solubility in (D)-2 [2]	solubility in resist solvents (in words) ([2]; summary of Table 3)	Solubility in (D)-3 [3]	solubility in propylene glycol monomethyl ether [2] [%]
CC(C)(c1cc(CO)c(O)c(CO)c1)c1cc(CO)c(O)c(CO)c1 [CA-01, 2,2-bis(4-hydroxy-3,5-dihydroxymethylphenyl)propane, reference compound]	27 °C	◯ (The material for forming a pattern was dissolved at a concentration of 1 wt % at 23° C.)	X	dissolve in only specific solvents	◯ (The material for forming a pattern was dissolved at a concentration of 1 wt % at 23° C.)	
CC(C)(C1CCC(c2cc(CO)c(O)c(CO)c2)(c2cc(CO)c(O)c(CO)c2)CC1)C1CCC(c2cc(CO)c(O)c(CO)c2)(c2cc(CO)c(O)c(CO)c2)CC1 [Compound A-01]	63 °C	◯ (The material for forming a pattern was dissolved at a concentration of 1 wt % at 23° C.)	◯ (The material for forming a pattern was dissolved at a concentration of 1 wt % at 23° C.)		⊚ (The material for forming a pattern was dissolved at a concentration of 5 wt % at 23° C.)	2
Cc1cc(C(c2cc(C)c(O)c(CO)c2)C(c2cc(C)c(O)c(CO)c2)c2cc(C)c(O)c(CO)c2)cc(CO)c1O [Compound A-02]	200 °C or	⊚ (The material for forming a pattern was dissolved at a concentration of 5 wt % at 23° C.)	◯ (The material for forming a pattern was dissolved at a concentration of 1 wt % at 23° C.)		⊚ (The material for forming a pattern was dissolved at a concentration of 5 wt % at 23° C.)	5
OCc1cc(C2(c3cc(CO)c(O)c(CO)c3)c3ccccc3-c3ccccc32)cc(CO)c1O [Compound A-04]	62 °C	⊚ (The material for forming a pattern was dissolved at a concentration of 5 wt % at 23° C.)	⊚ (The material for forming a pattern was dissolved at a concentration of 5 wt % at 23° C.)		⊚ (The material for forming a pattern was dissolved at a concentration of 5 wt % at 23° C.)	
CC(C)(c1cccc(C(C)(C)c2cc(CO)c(O)c(CO)c2)c1)c1cc(CO)c(O)c(CO)c1 [Compound A-05]	135 °C	⊚ (The material for forming a pattern was dissolved at a concentration of 5 wt % at 23° C.)	◯ (The material for forming a pattern was dissolved at a concentration of 1 wt % at 23° C.)		⊚ (The material for forming a pattern was dissolved at a concentration of 5 wt % at 23° C.)	
OCc1cc(C(c2cc(CO)c(O)c(C3CCCCC3)c2)C(c2cc(CO)c(O)c(C3CCCCC3)c2)c2cc(CO)c(O)c(C3CCCCC3)c2)cc(C2CCCCC2)c1O [Compound A-09]	200 °C or	⊚ (The material for forming a pattern was dissolved at a concentration of 5 wt % at 23° C.)	⊚ (The material for forming a pattern was dissolved at a concentration of 5 wt % at 23° C.)		⊚ (The material for forming a pattern was dissolved at a concentration of 5 wt % at 23° C.)	
COCc1cc(C(c2cc(C)c(O)c(COC)c2)C(c2cc(C)c(O)c(COC)c2)c2cc(C)c(O)c(COC)c2)cc(C)c1O [Compound A-12]	200 °C or	⊚ (The material for forming a pattern was dissolved at a concentration of 5 wt % at 23° C.)	⊚ (The material for forming a pattern was dissolved at a concentration of 5 wt % at 23° C.)		⊚ (The material for forming a pattern was dissolved at a concentration of 5 wt % at 23° C.)	
Cc1cc(C2(c3cc(C)c(O)c(CO)c3)CCC(C(C)(C)C3CCC(c4cc(C)c(O)c(CO)c4)(c4cc(C)c(O)c(CO)c4)CC3)CC2)cc(CO)c1O [Compound A-13]	200 °C or	⊚ (The material for forming a pattern was dissolved at a concentration of 5 wt % at 23° C.)	⊚ (The material for forming a pattern was dissolved at a concentration of 5 wt % at 23° C.)		⊚ (The material for forming a pattern was dissolved at a concentration of 5 wt % at 23° C.)	
c1cc(C(c2ccc(OCC3CO3)cc2)C(c2ccc(OCC3CO3)cc2)c2ccc(OCC3CO3)cc2)ccc1OCC1CO1 (stereo not drawn) [TEP-G, reference compound]	47 °C					
